# Assay results: patent US8334316B2, “Substituted organosulfur compounds and methods of using thereof” (ACEA Biosciences, Inc., priority 2004, dated 2012)
# pIC50: −log10 of the molar value.
# Columns and labels:
# Type in all cases: cell-based
# [1] = system: A2780 cells; assay: RT-CES system cell proliferation/cytotoxicity IC50, A2780; conditions: Homo sapiens, time point of maximum inhibition
# Description: (§1) The RT-CES system comprises three components, an electronic sensor analyzer, a device station and 16× or 96× microtiter plate devices. Microelectrode sensor array was fabricated on glass slides with lithographical microfabrication methods and the electrode-containing slides are assembled to plastic trays to form electrode-containing wells. Each 16× (or 96×) microtiter plate device used in RT-CES system comprises up to 16 (or 96) such electrode-containing wells. The device station receives the 16× or 96× microtiter plate devices and is capable of electronically switching any one of the wells to the sensor analyzer for impedance measurement. In operation, the devices with cells cultured in the wells are placed into a device station that is located inside an incubator. Electrical cables connect the device station to the sensor analyzer. Under the RT-CES software control, the sensor analyzer can automatically select wells to be measured and continuously conduct impedance measurements. The impedance data from the analyzer is transferred to a computer, analyzed and processed by the integrated software.
# (§2) To quantify cell status based on the measured cell-electrode impedance, a parameter termed Cell Index is derived, according to
# (§3) [formula] where Rb(f) and Rcell(f) are the frequency dependent electrode resistances (a component of impedance) without cells or with cell present, respectively. N is the number of the frequency points at which the impedance is measured. Thus, Cell Index is a quantitative measure of the status of the cells in an electrode-containing well. Under the same physiological conditions, more cells attached on to the electrodes leads to larger Rcell(f) value, leading to a larger value for Cell Index. Furthermore, for the same number of cells present in the well, a change in the cell status such as morphology will lead to a change in the Cell Index. For example, an increase in cell adhesion or cell spreading leads to larger cell-electrode contact area which will lead to an increase in Rcell(f) and thus a larger value for Cell Index. The Cell Index may also be calculated using a formula different from the one described here. Other methods for calculating the Cell Index based on impedance measurement can be found in PCT application number PCT/US04/37696, fined on Nov. 12, 2004, PCT application number PCT/US05/04481, filed on Feb. 9, 2005, U.S. patent application Ser. No. 10/987,732, filed on Nov. 12, 2004, and U.S. patent application Ser. No. 11/055,639, filed on Feb. 9, 2005.
# A2780 cells (human […]) were seeded into wells of 16× or 96× microtiter plate devices (electronic plates, i.e., the plates comprise microelectrode sensor arrays in the wells of the plate) with an initial seeding density of 20,000 cells per well and were pre-incubated in incubator under standard cell culture conditions for about 16.4 hrs. Dibenzyl trisulfide solution in DMSO was added into wells following the incubation period. The cell status was monitored prior to and after the compound addition using RT-CES system. The cell indexes of different wells were between 2.2 and 3.7 just before the compound addition. […] The cell index was normalized against the cell index values at a time point just after compound addition (about 17.5 hrs after cell seeding).
# (§4) For the assay performed on the RT-CES system, the cells were seeded into the 16× or 96× microtiter plate devices (electronic plates, i.e., the plates comprise microelectrode sensor arrays in the wells of the plate) at the seeding density ranging from 5000 cells/well to 15,000 cells/well. The cells were incubated at 5% CO2 and 37° C. for overnight till the cell indices reached the growth phase where the cell index was between 0.8 and 1.2. Serially diluted compounds were then added to the cells followed by dynamic monitoring of the effect of the compounds on the cell proliferation and cytotoxicity. […]
# [2] = system: MCF7 (human breast cancer cell line); assay: RT-CES system cell proliferation/cytotoxicity IC50, MCF7; conditions: time point of maximum inhibition
# Description: as §1, §2, §3
# MCF-7 cells (human breast cancer cells) were seeded into wells of 16× or 96× microtiter plate devices (electronic plates, i.e., the plates comprise microelectrode sensor arrays in the wells of the plate) with an initial seeding density of 10,000 cells per well and were pre-incubated in incubator under standard cell culture conditions for about 44 hrs. Dibenzyl trisulfide solution in DMSO was added into wells following the incubation period. The cell status was monitored prior to and after the compound addition using RT-CES system. The cell indexes of different wells were between 1.2 and 1.5 just before the compound addition. […] The cell index was normalized against the cell index values at a time point just after compound addition (about 44.5 hrs after cell seeding).
# as §4
# [3] = system: HT1080 (human fibrosarcoma cell line); assay: MTT assay IC50 (48 h), HT1080; conditions: HT-1080, HT1080, 48 hours
# Experimental: In another assay format, a test compound is assayed for its cytotoxicity and/or cytostatic effect on certain cancer cell types, using endpoint assay methods. Cells in the NCI cancer cell panel may be used. Cells after a pre-incubation for certain length of time (for example, 8 hrs or 24 hrs) are incubated with a test compound at serially-diluted concentrations (for example, five 10-fold dilutions) for 24 hrs and/or 48 hrs, and/or other specific length of time. The dose dependent cytotoxicity and/or cytostatic effects of test compounds can then be tested and evaluated using the 3-(4,5-dimethylthiazol-2-yl)-2,5-diphenyltetrazolium bromide (MTT) assay method, as described by, for example, Boyd (In Principle of Practice of Oncology, Devita, J. T., Hellman, S. and Rosenberg S. A. (Eds), 1989, Vol, 3, PPO Update, No. 10).
# The anticancer potency of DBTS and its derivatives were tested in 8 different types of human cancer cell lines using the RT-CES system and MTT assay. The 8 cancer cell lines were HT1080 (the human fibrosarcoma cell line), H460 (human non small cell lung cancer cell line), OVCAR4 (the human ovarian cancer cell line), MCF7 (human breast cancer cell line) MDA-MB231 (M231, the human breast cancer cell line) A2780 (the human […] cancer cell line) Jurkat (the human T cell leukemia cell line). The test DBTS derivatives include ACEA100107, ACEA100108, ACEA100109, ACEA100111, ACEA100115, ACEA100116, ACEA100117, ACEA100118, ACEA100119, and ACEA100120.
# For the MTT assay, the cells were seeded into the regular 96× well plates at the cell seeding density ranging from 5000 cells/well to 15,000 cells/well. The cells were incubated at 5% CO2 and 37° C. for overnight. The derivatives were serially diluted and added to the cells. The treatment was terminated after 48 hours of incubation by adding MTT staining reagent. After 4 hours, the staining was stopped by the stop buffer and then the calorimetric measurement was carried out on a microtiter plate reader at dual wave length, 650 nm and 550 nm.
SMILES,pIC50 [3],IC50 [1],IC50 [2]
"Fc1ccc(CSSSCc2ccc(F)cc2)cc1 [ACEA100108, Di(p-fluorobenzyl)trisulfide]",4.72,0.5 µM,2.15 µM
"Clc1ccccc1CSSSCc1ccccc1Cl [ACEA100115, Di(o-chlorobenzyl)trisulfide]",4.91,0.75 µM,7.8 µM
"FC(F)(F)c1cccc(CSSSCc2cccc(C(F)(F)F)c2)c1 [ACEA100117, Di(m-trifluoromethylbenzyl)trisulfide]",4.32,11.8 µM,48.8 µM
"c1ccc(CSSSCc2ccccc2)cc1 [DBTS, Dibenzyl trisulfide]",5.59,0.4 µM,6.6 µM

# Continued, in another order:
pIC50 [3],SMILES,IC50 [1],IC50 [2]
5.66,"Cc1cccc(CSSSCc2cccc(C)c2)c1 [ACEA100116, di(m-methylbenzyl)trisulfide]",0.75 µM,2.75 µM
5.94,"Clc1ccc(CSSSCc2ccc(Cl)cc2)cc1 [ACEA100118, Di(p-chlorobenzyl)trisulfide]",0.7 µM,4.4 µM
